Source: patent publication US20240024350A1, “ANTI-CANCER COMPOSITION CONTAINING AURANOFIN AND MERCAPTO COMPOUND AND USE THEREOF” (SUN YAT-SEN UNIVERSITY, priority 2020, published 2024)
Read-outs that look alike come from different tables or passages of the source.

Key:
[1] = tested on: HCT116 human colon cancer cells; experiment: MTT colorimetric proliferation / cell survival assay, HCT116; conditions: for Cell survival rate (%): compound alone, others not given; for Cell survival rate (%) / Cell survival rate after addition of 10 μM auranofin (%): with 30% FBS, 50 μM for TGTA, β-mercaptoethanol, mercaptoethylamine, DEDT; for Cell survival rate after addition of 10 μM auranofin (%): compound plus 10 μM auranofin, listed as Auranofin = auranofin alone
[2] = tested on: HepG-2 human liver cancer cells; experiment: MTT colorimetric proliferation / cell survival assay, HepG-2; format: cell-based
Protocol: (§1) A flask with the cancer cells required for the experiment, with an original culture solution discarded, was washed for three times with 2 mL of PBS, 1 mL of pancreatin was added for digestion for 30 s, and 2 mL of a medium was added to terminate the digestion. The cells were transferred to a centrifuge tube and centrifuged at 1000 rpm for 3 min, the supernatant was discarded, and 2 mL of a medium was added and blew 10 times to be mixed uniformly. 10 μL of a cell suspension was taken for cell counting, and spread on a 96-well plate, with 5000 cells per well and 3 duplications for each compound, and then the number of cells and cell wells was calculated. The amount of required cell suspension and the number of cells for medium dilution were calculated by cell counting. 100 μL of medium was plated with 5000 cells per well, pipetted and mixed uniformly, and the cells were inoculated using a volley, placed in an incubator for culture, and marked.
(§2) (2) The cells cultured in step (1) was taken, and discarded with the original medium. Auranofin mother liquor was diluted to a diluent with final concentrations of 0, 0.78125, 1.5625, 3.125, 6.25, 12.5, 25, 50 and 100 μM, and mixed uniformly. A volley (using 3 wells) was used to draw 100 μL of dilution per well, a 96-well plate was tilted, diluents with each concentration were added in sequence to the corresponding 3 marked wells carefully to prevent poking the cells, blown and sucked about 3 times to be mixed uniformly, marked, shaken for 3 times, and put into a CO2 incubator for culture. The above steps were repeated for each auranofin diluent.
(§3) After auranofin was added for culture for 1 hour, the mother liquor of the mercapto compound was diluted into […] and mixed uniformly. A volley (using 3 wells) was used to suck 20 μL of diluent per well, the 96-well plate was tilted, the diluents of different mercapto compounds were added in sequence to the corresponding 3 marked wells carefully to prevent poking the cells, blown and sucked about 3 times to be mixed uniformly, and put back to the incubator to continue culture.
(§4) After different mercapto compounds were added to cells for 24 h, 20 μL of MTT (with a concentration of 5 mg/mL in PBS) per well was added to the 96-well plate by a volley; and incubation was carried out at 37° C. for 4 h. At the end of incubation, the MTT mixture was sucked out, and DMSO was added at 130 μL/well using a volley.
(§5) According to the results of Table 1-2, the killing effect of auranofin in combination with various compounds (with 30% FBS) on HCT116 human colon cancer cells and the killing effect of the auranofin-TGTA (50 μM) in combination with other cancer cells (lung cancer, colon cancer, breast cancer, liver cancer, cervical cancer and gastric cancer cells) were further detected by using the same method as the above.

[3] = tested on: A549 human lung cancer cells; experiment: MTT colorimetric proliferation / cell survival assay, A549; format: cell-based
Protocol: as §1, §2, §3, §4, §5

[4] = tested on: MCF-7 human breast cell cancer cells; experiment: MTT colorimetric proliferation / cell survival assay, MCF-7; format: cell-based
Protocol: as §1, §2, §3, §4, §5

[5] = tested on: HCT-8 human colon adenocarcinoma cells; experiment: MTT colorimetric proliferation assay, HCT-8; format: cell-based; conditions: containing 40 mg/mL BSA; 200 μM of added compound
Protocol: as §1
(2) The cells cultured in step (1) was taken, and discarded with the original medium. Auranofin mother liquor was diluted to a diluent with final concentrations of 0, 0.78125, 1.5625, 3.125, 6.25, 12.5, 25, 50 and 100 μM, and mixed uniformly. […]

[6] = tested on: PC9 human lung cancer cells; experiment: MTT cell survival assay, PC9; format: cell-based; conditions: TGTA 50 μM
Protocol: as §1, with “marked. […]” for “marked.”
as §5

PCGR lung cancer cells = experiment: MTT cell survival assay, PCGR; format: cell-based; conditions: TGTA 50 μM
Protocol: as §1, with “marked. […]” for “marked.”
as §5

[7] = tested on: Hela human cervical cancer cells; experiment: MTT cell survival assay, Hela; format: cell-based; conditions: TGTA 50 μM
Protocol: as §1, with “marked. […]” for “marked.”
as §5

[8] = tested on: MGC803 human gastric cancer cells; experiment: MTT cell survival assay, MGC803; format: cell-based; conditions: TGTA 50 μM
Protocol: as §1, with “marked. […]” for “marked.”
as §5

TrxR = experiment: Intracellular TrxR activity in HepG2 cells (DTNB reduction); format: cell-based, human
Protocol: (§6) HepG2 cells were used as a test subject.
(§7) The cells were inoculated into a 6-well plate at 2×10^5 cell/well and incubated for 24 h.
After the incubation, the cell culture medium was replaced with 30% FBS to simulate the high concentration mercapto environment under the normal physiological condition, and used as a control (without adding any reagents). The experimental group was added with 0.5 μM of auranofin for incubation at 37° C. for 30 min, and then added with the mercapto compound (DEDT, β-mercaptoethanol or mercaptoethylamine) for incubation for 30 min (final concentration of DMSO in the system was ≤1%). The incubated cells were washed for 3 times with PBS, added with 100 μL of icy lysis buffer (containing 50 mM of phosphate buffer with pH 7.4, 1 mM EDTA, and 0.10% Triton-X 100), and then lysed on ice for 5 min to collect the cell lysate.
100 μL of buffer (containing 50 mM of potassium phosphate with pH 7.4, 1 mM EDTA, and 0.2 mM NADPH) was added to the collected cell lysate (10 μg protein), 5,5′-dithiobis (2-nitrobenzoic acid) (DTNB, with a final concentration of 3 mM) was added to initiate a reaction, and the activity of TrxR was obtained on the basis of the increased OD value in 10 minutes (OD detection wavelength was 410 nm). Auranofin alone was the positive control sample, and the blank group was the negative control.

HepG2 cells = experiment: Cell uptake of auranofin (gold by ICP-MS) in HepG2 cells; format: cell-based, human
Protocol: as §6, §7
After the incubation, the cell culture medium was replaced with 30% of FBS to stimulate a high-concentration mercapto environment under the normal physiological condition, and used as a control (without adding any reagents). The experimental group was added with 3 μM of auranofin for incubation at 37° C. for 10 min and then added with the mercapto compound (DEDT, β-mercaptoethanol or mercaptoethylamine) for incubation for 1 h (final concentration of DMSO in the system was 1%). After incubation, the cells were immediately washed for 3 times with PBS, 500 μL of ultrapure water was added to each well to break the cells, and after 15 min, the cell lysate was collected.
The collected cell lysate was dissolved by adding aqua regia and diluted with ultrapure water to a proper proportion. Inductively coupled plasma mass spectrometry (ICP-MS) was used for gold detection. The cell uptake rate of 3 μM […] without FBS was used as the control.
Wherein, the above uptake is the amount of gold (mg) in 1 g protein in the cell.

[9] = tested on: colon cancer cell HCT116 xenograft; experiment: Mouse tumor model, HCT116 xenograft; format: in vivo, BALB/Cann nu (Nude) mice; conditions: HCT116 xenograft in nude mice; intraperitoneal once a day; auranofin 3 mg/kg/day, mercapto compound (β-mercaptoethanol or TGTA) 40 mg/kg/day
Protocol: Establishment of mouse tumor model: 2 million colon cancer cell HCT116 cells suspended in PBS were injected subcutaneously into the dorsal side of 5-7 week-old female BALB/Cann nu (Nude) mice to establish a xenograft model.
When the tumor volume reached about 50 mm^3 (3-4 days after tumor inoculation), mice were randomly divided into a control group and a treatment group, the control group was treated with corn oil, the treatment group was intraperitoneally injected with auranofin (3 mg/kg mouse body weight/day) in combination with various mercapto compounds (β-mercaptoethanol or TGTA, 40 mg/kg mouse body weight/day) once a day. When the tumor volume grew to 1000 mm^3, the mice were anesthetized and then sacrificed by dislocation of the cervical spine.

[10] = tested on: acute lymphocytic leukemia cell P388; conditions: mice inoculated with P388; earlier studies; cited from earlier work
solid tumor models = conditions: several solid tumor models; intraperitoneal injection; follow-up studies; cited from earlier work

O[C@H](CS)[C@H](O)CS (racemic) [Dithiothreitol (DTT), Dithiothreitol]
Cell survival rate (%) [1]: 102 ± 4% | Cell survival rate after addition of 10 μM auranofin (%) [1]: 88 ± 6%

CC(=O)OC[C@H]1O[C@@H]([S-])[C@H](OC(C)=O)[C@@H](OC(C)=O)[C@@H]1OC(C)=O.CCP(CC)CC.[Au+] [Auranofin]
Cell survival rate (%) HepG2 ([2]; Liver cancer, TGTA 50 μM): 87 ± 1% | IC50 ([2]; auranofin alone, without BSA/FBS, read-out: IC50 HepG2 Human liver cancer cells): 1.3 µM | IC50 ([2]; containing 40 mg/mL BSA, 200 μM of added compound, read-out: IC50 HepG-2 Human liver cancer cells): 16.6 µM | IC50 ([2]; under the normal physiological condition, auranofin alone, read-out: IC50 value, proliferation of HepG-2 human liver cancer cells): > 30 µM | IC50 ([2]; with 10% FBS, mercapto compound added 1 h after auranofin, MTT after 24 h, read-out: IC50 HepG-2 Human liver cancer cells): 3 µM | Cell survival rate (%) A549 ([3]; Lung cancer, TGTA 50 μM): 81 ± 7% | IC50 ([3]; auranofin alone, without BSA/FBS, read-out: IC50 A549 Human lung cancer cells): 4.2 µM | IC50 ([3]; containing 40 mg/mL BSA, 200 μM of added compound, read-out: IC50 A549 Human lung cancer cells): 70.5 µM | IC50 ([3]; under the normal physiological condition, auranofin alone, read-out: IC50 value, proliferation of A549 human lung cancer cells): > 30 µM | IC50 ([3]; with 10% FBS, mercapto compound added 1 h after auranofin, MTT after 24 h, read-out: IC50 A549 Human lung cancer cells): 12.9 µM | IC50 ([4]; auranofin alone, without BSA/FBS, read-out: IC50 MCF-7 Human breast cell cancer cells): 3.4 µM | Cell survival rate (%) MCF-7 ([4]; breast cancer, TGTA 50 μM): 80 ± 2% | IC50 ([4]; containing 40 mg/mL BSA, 200 μM of added compound, read-out: IC50 MCF-7 Human breast cell cancer cells): 39.7 µM | IC50 ([4]; under the normal physiological condition, auranofin alone, read-out: IC50 value, proliferation of MCF-7 human breast cell cancer cells): > 30 µM | IC50 ([4]; with 10% FBS, mercapto compound added 1 h after auranofin, MTT after 24 h, read-out: IC50 MCF-7 Human breast cell cancer cells): 5.7 µM | IC50 [5]: 33.2 µM | Cell survival rate (%) PC9 [6]: 93 ± 3% | Cell survival rate (%) PCGR (PCGR lung cancer cells): 37 ± 4% | Cell survival rate (%) Hela [7]: 46 ± 7% | Cell survival rate (%) MGC803 [8]: 79 ± 3% | Activity of TrxR (TrxR; 0.5 μM auranofin alone, with 30% FBS): 63.6% | Activity of TrxR (TrxR; 0.5 μM auranofin alone, with 30% FBS, listed as Positive control): 63.6% | Activity of TrxR (TrxR; 0.5 μM auranofin alone, without FBS, relative to negative control 100%): 15.9% | Activity of TrxR (TrxR; 0.5 μM auranofin alone, without FBS, relative to negative control 100%, listed as Positive control): 15.9% | uptake of gold (HepG2 cells): 728 mg/g protein | growth of tumors [9]: not effectively inhibited | life span of mice [10]: effectively prolong the life span | life span of mice and growth of tumors (solid tumor models): could neither prolong the life span of mice nor inhibit the growth of tumors | Cell survival rate (%) HCT116 ([1]; colon cancer, TGTA 50 μM): 75 ± 5% | Cell survival rate after addition of 10 μM auranofin (%) [1]: 75 ± 5% | IC50 ([1]; read-out: IC50 HCT116 Human colon cancer cells, auranofin alone, without BSA/FBS): 1 µM | IC50 ([1]; read-out: IC50 HCT116 Human colon cancer cells, with 10% FBS, mercapto compound added 1 h after auranofin, MTT after 24 h): 3.4 µM | IC50 ([1]; read-out: IC50 HCTI16 Human colon cancer cells, containing 40 mg/mL BSA, 200 μM of added compound): 30 µM | IC50 ([1]; read-out: IC50 value, proliferation of HCT116 human colon cancer cells, under the normal physiological condition, auranofin alone): > 30 µM

CCN(CC)C(=S)[S-].[Na+] [DEDT, Sodium diethyldithiocarbamate]
Activity of TrxR (TrxR; mercapto compound alone 200 μM, 30% FBS): 88.6% | Cell survival rate (%) [1]: 78 ± 10% | Cell survival rate after addition of 10 μM auranofin (%) [1]: 0.9 ± 1.6%

N[C@@H](CCC(=O)N[C@@H](CS)C(=O)NCC(=O)O)C(=O)O [Glutathione (GSH), Glutathione]
Cell survival rate (%) [1]: 116 ± 6% | Cell survival rate after addition of 10 μM auranofin (%) [1]: 81 ± 7%

Cn1cc[nH]c1=S [Methimazole]
Cell survival rate (%) [1]: 98 ± 9% | Cell survival rate after addition of 10 μM auranofin (%) [1]: 87 ± 5%

CC(=O)N[C@@H](CS)C(=O)O [N-acetylcysteine (NAC), N-acetylcysteine]
Cell survival rate (%) [1]: 100 ± 6% | Cell survival rate after addition of 10 μM auranofin (%) [1]: 77 ± 17%
